Data taken from article PMC3706206 (Chemico-biological interactions, 2011).
Like-named read-outs stand apart in the source and are kept apart here.

How the values were obtained:
SK-MEL-28 melanoma cells [1] = test: MTT cell cytotoxicity assay; type: cell-based, human; details: for IC50: Homo sapiens, SK-MEL-28, 48 h, read-out: IC50 (48 h)
[2] = target: T1, GST (human placenta, hGSTP1-1) (Homo sapiens, UniProt P09211); test: GST substrate assay; type: biochemical; details: for substrate for GST (GSH consumption as biomarker): GST 0.1 U/mL, GSH 500 µM, no tyrosinase, up to 60 min at 37 °C
T1 sequence (P09211 2-210 limits assumed): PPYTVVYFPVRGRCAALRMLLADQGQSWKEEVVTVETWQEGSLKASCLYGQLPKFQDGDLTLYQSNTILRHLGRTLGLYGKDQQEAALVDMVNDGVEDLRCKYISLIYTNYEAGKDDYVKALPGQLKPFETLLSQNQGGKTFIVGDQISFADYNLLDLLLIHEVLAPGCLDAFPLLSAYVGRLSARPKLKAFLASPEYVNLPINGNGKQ

[3] = target: T2, human placenta GST (hGSTP1-1) (Homo sapiens, UniProt P09211); test: Inhibition of human placenta GST; type: biochemical; details: for GST inhibition in the absence and presence of tyrosinase: controls; for GST inhibition: 25 µM; for GST activity inhibition: quinone formed with tyrosinase
T2 sequence (P09211 2-210 limits assumed): as above

tyrosinase = test: Metabolism by tyrosinase; type: biochemical, Mushroom
[4] = system: GST in human SK-MEL-28 melanoma cell homogenate; test: Inhibition of GST in human SK-MEL-28 melanoma cell homogenate; type: biochemical; details: 15–100 µM, in the presence of tyrosinase (10 U/mL)
SK-MEL-28 melanoma cells [5] = test: Effect of modulators on CAPE toxicity; type: cell-based, human; details: for MTT assay value, modulator alone, Cells (1% DMSO) / MTT assay value, modulator alone, Cells: no CAPE, MK-571 10 µM, probenecid 500 µM, ethacrynic acid 2 µM; for decrease of the IC50 value of CAPE (30 µM): MK-571 10 µM or probenecid 500 µM with CAPE 30 µM; for MTT assay value, No modulator / MTT assay value, Ethacrynic acid (2 µM) / MTT assay value, MK-571 (10 µM) / MTT assay value, Probenecid (500 µM): 48 h; for MTT assay value, Ethacrynic acid (2 µM): 1 h pretreatment with EA; for MTT assay value, MK-571 (10 µM): 1 h pretreatment with MK-571; for MTT assay value, Probenecid (500 µM): 1 h pretreatment with probenecid
SK-MEL-28 melanoma cells [6] = test: Mitochondrial membrane potential assay; type: cell-based, human; details: for increase of the effect of CAPE (15–30 µM) on mitochondrial membrane potential: MK-571 10 µM or probenecid 500 µM, approximate; for further decrease of mitochondrial membrane potential for CAPE (15 µM) / further decrease of mitochondrial membrane potential for CAPE (30 µM): combination with MK-571 10 µM or probenecid 500 µM, 48 h
SK-MEL-28 cells = test: Annexin V-FITC/propidium iodide apoptosis assay; type: cell-based, human; details: for increase of CAPE (15 µM) induced apoptotic cell death / increase of CAPE (30 µM) induced apoptotic cell death: MK-571 10 µM or probenecid 500 µM, 1 h pretreatment, 48 h
[7] = target: T2, human placenta GST (hGSTP1-1); test: Reversible/irreversible nature of GST inhibition; type: biochemical; details: GST activity after filtering the reaction mixture through 10 K Millipore filter; 25 µM
[8] = target: T1, GST (human placenta, hGSTP1-1); test: Competitive and non-competitive GST inhibition, Lineweaver-Burk plots, Ki; type: biochemical; details: for Mechanism of GST inhibition, with respect to GSH (0.2–1 mM): Inhibition / Mechanism of GST inhibition, with respect to CDNB (0.2–1 mM): Inhibition: CAPE 100 µM, CAPE-quinone 10 µM, CAPE-SG 10 µM, EA 20 µM; for Ki′ with respect to GSH (0.2–1 mM) / Ki′ with respect to CDNB (0.2–1 mM): mixed inhibition; for Ki: apparent Ki
[9] = cited from earlier work
[10] = 30 µM, 48 h incubation (data not shown)
[11] = read-out: Ki with respect to CDNB (0.2–1 mM), GSH 1 mM
[12] = read-out: Ki with respect to GSH (0.2–1 mM), CDNB 1 mM

N[C@@H](Cc1ccc(O)cc1)C(=O)O [tyrosine, L-tyrosine]
cell toxicity (SK-MEL-28 melanoma cells [1]; [10]): 2–27% | IC50 (SK-MEL-28 melanoma cells [1]): > 5000 µM | substrate for GST (GSH consumption as biomarker) [2]: none of these tested compounds, including CAPE, 4-HA, tyrosine, and CA, was a substrate for GST | GST inhibition in the absence and presence of tyrosinase [3]: no GST inhibition | substrate for tyrosinase (tyrosinase): substrates for tyrosinase | GST inhibition in SK-MEL-28 melanoma cell homogenate [4]: did not show any significant GST inhibition

C=C(CC)C(=O)c1ccc(OCC(=O)O)c(Cl)c1Cl [Ethacrynic acid, ethacrynic acid]
effect on the IC50 value of CAPE towards melanoma cells (SK-MEL-28 melanoma cells [5]; EA 2 µM): did not affect | MTT assay value, modulator alone, Cells (1% DMSO) (SK-MEL-28 melanoma cells [5]): 96 ± 3 | MTT assay value, modulator alone, Cells (SK-MEL-28 melanoma cells [5]): 97 ± 4

CCCN(CCC)S(=O)(=O)c1ccc(C(=O)O)cc1 [probenecid]
increase of the effect of CAPE (15–30 µM) on mitochondrial membrane potential (SK-MEL-28 melanoma cells [6]): 8–11 fold | further decrease of mitochondrial membrane potential for CAPE (15 µM) (SK-MEL-28 melanoma cells [6]): 56% | further decrease of mitochondrial membrane potential for CAPE (30 µM) (SK-MEL-28 melanoma cells [6]): 68% | decrease of the IC50 value of CAPE (30 µM) (SK-MEL-28 melanoma cells [5]): 9% | MTT assay value, modulator alone, Cells (1% DMSO) (SK-MEL-28 melanoma cells [5]): 99 ± 6 | MTT assay value, modulator alone, Cells (SK-MEL-28 melanoma cells [5]): 97 ± 5 | increase of CAPE (15 µM) induced apoptotic cell death (SK-MEL-28 cells): 13% | increase of CAPE (30 µM) induced apoptotic cell death (SK-MEL-28 cells): 16% | change of CAPE-induced apoptotic cell death (SK-MEL-28 cells; probenecid 500 µM, CAPE at 15 or 30 µM): approximately doubled

caffeic acid glutathione conjugate [CA-SG conjugate]
reversible or irreversible nature of GST inhibition [7]: reversibly

caffeic acid phenethyl ester glutathione conjugate [CAPE-SG conjugate]
GST inhibition [3]: ≥ 85% | Mechanism of GST inhibition, with respect to GSH (0.2–1 mM): Inhibition ([8]; CDNB 1 mM): Mixed | Ki′ with respect to GSH (0.2–1 mM) ([8]; CDNB 1 mM): 14 µM | Mechanism of GST inhibition, with respect to CDNB (0.2–1 mM): Inhibition ([8]; GSH 1 mM): Competitive | Ki [8, 11]: 3.1 µM | Ki [8, 12]: 2.6 µM | reversible or irreversible nature of GST inhibition [7]: reversible

CCCCS(=N)(=O)CCC(N)C(=O)O (centres unmarked) [BSO]
effect on CAPE induced toxicity in SK-MEL-28 cells (SK-MEL-28 melanoma cells [5]; data not shown): enhanced

N[C@@H](CC1=CC(=O)C(=O)C=C1)C(=O)O [tyrosine–quinone]
GST activity inhibition ([3]; 50 µM): no significant GST inhibition

COc1ccc(O)cc1 [4-HA, 4-hydroxyanisole]
cell toxicity (SK-MEL-28 melanoma cells [1]; [10]): 2–27% | IC50 (SK-MEL-28 melanoma cells [1]): 60 µM | substrate for GST (GSH consumption as biomarker) [2]: none of these tested compounds, including CAPE, 4-HA, tyrosine, and CA, was a substrate for GST | GST inhibition in the absence and presence of tyrosinase [3]: no GST inhibition | substrate for tyrosinase (tyrosinase): substrates for tyrosinase

O=C(O)/C=C/C1=CC(=O)C(=O)C=C1 [CA-quinone]
reversible or irreversible nature of GST inhibition [7]: irreversibly

CN(C)C(=O)CCSC(SCCC(=O)O)c1cccc(/C=C/c2ccc3ccc(Cl)cc3n2)c1 (centres unmarked) [MK-571]
increase of the effect of CAPE (15–30 µM) on mitochondrial membrane potential (SK-MEL-28 melanoma cells [6]): 3–4 fold | further decrease of mitochondrial membrane potential for CAPE (15 µM) (SK-MEL-28 melanoma cells [6]): 10% | further decrease of mitochondrial membrane potential for CAPE (30 µM) (SK-MEL-28 melanoma cells [6]): 29% | decrease of the IC50 value of CAPE (30 µM) (SK-MEL-28 melanoma cells [5]): 12% | MTT assay value, modulator alone, Cells (1% DMSO) (SK-MEL-28 melanoma cells [5]): 97 ± 1 | MTT assay value, modulator alone, Cells (SK-MEL-28 melanoma cells [5]): 98 ± 3 | increase of CAPE (15 µM) induced apoptotic cell death (SK-MEL-28 cells): 3% | increase of CAPE (30 µM) induced apoptotic cell death (SK-MEL-28 cells): 7%

O=C(/C=C/c1ccc(O)c(O)c1)OCCc1ccccc1 [CAPE, caffeic acid phenethyl ester]
cell toxicity (SK-MEL-28 melanoma cells [1]; 15 µM, 48 h incubation): 48% | IC50 (SK-MEL-28 melanoma cells [1]): 15 µM | substrate for GST (GSH consumption as biomarker) [2]: none of these tested compounds, including CAPE, 4-HA, tyrosine, and CA, was a substrate for GST | inhibition at 50 µM ([3]; read-out: GST activity inhibition): 13% | MTT assay value, No modulator (SK-MEL-28 melanoma cells [5]; CAPE 15 µM): 52 ± 2 | MTT assay value, Ethacrynic acid (2 µM) (SK-MEL-28 melanoma cells [5]; CAPE 15 µM): 51 ± 2 | MTT assay value, MK-571 (10 µM) (SK-MEL-28 melanoma cells [5]; CAPE 15 µM): 39 ± 3 | MTT assay value, Probenecid (500 µM) (SK-MEL-28 melanoma cells [5]; CAPE 15 µM): 31 ± 2 | MTT assay value, No modulator (SK-MEL-28 melanoma cells [5]; CAPE 30 µM): 38 ± 2 | MTT assay value, Ethacrynic acid (2 µM) (SK-MEL-28 melanoma cells [5]; CAPE 30 µM): 39 ±4 | MTT assay value, MK-571 (10 µM) (SK-MEL-28 melanoma cells [5]; CAPE 30 µM): 26 ± 1 | MTT assay value, Probenecid (500 µM) (SK-MEL-28 melanoma cells [5]; CAPE 30 µM): 29 ± 1 | substrate for tyrosinase (tyrosinase): substrates for tyrosinase | CAPE metabolized by tyrosinase (tyrosinase; after a 60-min incubation): 90% | Mechanism of GST inhibition, with respect to GSH (0.2–1 mM): Inhibition ([8]; CDNB 1 mM): Mixed | Ki′ with respect to GSH (0.2–1 mM) ([8]; CDNB 1 mM): 2990 µM | Mechanism of GST inhibition, with respect to CDNB (0.2–1 mM): Inhibition ([8]; GSH 1 mM): Mixed | Ki′ with respect to CDNB (0.2–1 mM) ([8]; GSH 1 mM): 451 µM | Ki ([8]; Ki with respect to CDNB (0.2–1 mM), GSH 1 mM): 233 µM | Ki ([8]; Ki with respect to GSH (0.2–1 mM), CDNB 1 mM): 942 µM | stability in human plasma [9]: highly stable | reversible or irreversible nature of GST inhibition [7]: weak and reversible inhibitors of GST

O=C(/C=C/C1=CC(=O)C(=O)C=C1)OCCc1ccccc1 [CAPE-quinone]
GST activity inhibition ([3]; 10 µM): 70% | GST inhibition [3]: ≥ 85% | GST activity inhibition ([3]; 50 µM): 93% | Mechanism of GST inhibition, with respect to GSH (0.2–1 mM): Inhibition ([8]; CDNB 1 mM): Competitive | Mechanism of GST inhibition, with respect to CDNB (0.2–1 mM): Inhibition ([8]; GSH 1 mM): Mixed | Ki′ with respect to CDNB (0.2–1 mM) ([8]; GSH 1 mM): 8.8 µM | Ki [8, 11]: 2.7 µM | Ki [8, 12]: 0.7 µM | reversible or irreversible nature of GST inhibition [7]: irreversible covalent binding

O=[N+]([O-])c1ccc(Cl)c([N+](=O)[O-])c1 [CDNB, 1-chloro-2,4-dinitrobenzene]
glutathione consumed per mole of CDNB ([2]; CDNB metabolized by GST, 60 min incubation, positive control): 0.6 mol

O=C(O)/C=C/c1ccc(O)c(O)c1 [CA, caffeic acid]
cell toxicity (SK-MEL-28 melanoma cells [1]; [10]): 2–27% | IC50 (SK-MEL-28 melanoma cells [1]): 2300 µM | substrate for GST (GSH consumption as biomarker) [2]: none of these tested compounds, including CAPE, 4-HA, tyrosine, and CA, was a substrate for GST | substrate for tyrosinase (tyrosinase): substrates for tyrosinase | reversible or irreversible nature of GST inhibition [7]: weak and reversible inhibitors of GST

COC1=CC(=O)C(=O)C=C1 [4-HA-quinone]
GST activity inhibition ([3]; 50 µM): no significant GST inhibition
